Data reported in PMC2443290, “Genistein-Supplemented Diet Decreases Malaria Liver Infection in Mice and Constitutes a Potential Prophylactic Strategy” (PLoS ONE, 2008).
“And” between values parts separate entries of the source, which are not always exact repeats. Equal values may be shown once. Read-outs that look alike come from different tables or passages of the source.

Legend:
P. berghei ANKA = test: IC50 of infection of Huh7 cells by P. berghei ANKA, 18S rRNA qRT-PCR; type: cell-based; conditions: Plasmodium berghei
Experimental: (§1) This was performed in parallel to experiments where primaquine was tested in P. berghei infection of Huh7 cells. […] In addition to hepatoma cell lines primary mouse hepatocyte cultures were also used.
Black circles represent the mean of P. berghei ANKA18S rRNA expression in each condition (n = 3). […] Black circles represent the mean of P. berghei ANKA18S rRNA expression in each condition (n = 3).

[1] = test system: P. berghei ANKA sporozoites; test: In vitro infection of Hepa1-6 cells by P. berghei ANKA sporozoites, EEF counting; type: cell-based
Experimental: (§2) HepG2, and Hepa1-6 cells (human and mouse hepatoma cell lines, respectively) were maintained in DMEM 10% FCS, 1% Penicillin/Streptomycin and 1 mM glutamine. HepG2 or Hepa1-6 cells (2×10^5) were seeded in 24-well plates and allowed to adhere for 24 hours before infection. Huh7 cells (human hepatoma cell line) were maintained in RPMI 10% FCS, 1% Penicillin/Streptomycin and 1 mM glutamine. Huh7 cells (1,75×10^5) were seeded in 24-well plates and allowed to adhere for 24 hours before infection. Green fluorescent protein (GFP)-expressing P. berghei ANKA sporozoites were obtained from the dissection of infected Anopheles stephensi mosquito salivary glands.
(§3) P. berghei ANKA sporozoites (4×10^4/well) were added to monolayers of Hepa1-6 or HepG2 cells in 24-well plates. […] As control, an equivalent volume of DMSO (dimethylsulphoxide) was added. […] In all experiments, genistein was left in the cultures since the time of addition until the cells were fixed for quantification of infection. Infection was quantified by counting the total number of EEFs per coverslip using fluorescence microscopy (magnification 400×). […] The level of infection was measured as described above, 24 hours post-infection with sporozoites. Quantification of the area of 100 individual EEFs of each group was performed using ImageJ 1.36b software. The results are expressed as areas in μm^2.

P. yoelii = test: IC50 of infection of Hepa1-6 cells by P. yoelii, 18S rRNA qRT-PCR; type: cell-based; conditions: Plasmodium yoelii, Hepa1-6, 24 h, P. yoelii infection of Hepa1-6 cells, read-out: IC50 (inhibition of infection)
[2] = test system: P. berghei ANKA sporozoites; test: Mouse liver infection by P. berghei ANKA sporozoites, 18S rRNA qRT-PCR; type: in vivo
Experimental: (§4) C57BL/6 mice were bred and housed in the pathogen-free facilities of the Instituto de Gulbenkian de Ciência following all the EU regulations. The mice were then moved to the Instituto de Medicina Molecular Animal House were all the experiments were performed. All protocols were approved by the IMM Animal Care Committee. […] All mice were infected with 1×10^4 P. berghei ANKA sporozoites between the ages of 7 and 9 weeks old and liver infection was determined 40 hours later. In a parallel set of experiments, sporozoite infection was allowed to proceed to blood stage, to assess the impact of genistein in disease progression.
Forty hours post-sporozoite injection, livers were dissected and homogenized, and total RNA was extracted with an RNeasy Mini kit Quiagen, according to the manufacturer's recommendation. cDNA was obtained by reverse transcription using the First-strand cDNA synthesis kit (Roche) following the manufacturer's instructions. Quantitative RT-PCR reactions were performed for quantification of parasite load, using an ABI PRISM 7000, Applied Biosystem, and specific primers for Plasmodium berghei 18 S rRNA (5′-[…]-3′ and 5′-[…]-3′); or specific primers for P. yoelii 18 S rRNA (5′ –[…]-3′ and 5′-[…]-3′) were used for quantification of parasite load in the livers of mice 40 hours after sporozoite challenge. The amplification program consisted of incubation at 50°C for 2 min, 95°C for 10 min, followed by 50 cycles at 95°C for 15 s and 60°C for 1 min. For external standardization, plasmids encoding cDNA fragments cloned into TOPO TA, Invitrogen; corresponding to the amplified regions of the corresponding genes, were utilized. Copy numbers were calculated comparing the cycle numbers of the log-linear phase of the samples with the cycle numbers of the external standards.

[3] = test system: P. berghei ANKA-infected red blood cells (iRBC); test: Blood stage infection of mice with P. berghei ANKA iRBC; type: in vivo; conditions: 1000 ppm genistein-supplemented diet; 1×10^6 iRBC i.p.
Experimental: Peripheral blood parasitemia and ECM symptoms were determined as described above.

P. berghei sporozoites = type: cell-based; conditions: data not shown
Experimental: as §1

P. yoelii sporozoites = test: Mouse liver infection by P. yoelii sporozoites, 18S rRNA qRT-PCR; type: in vivo; conditions: single i.p. dose 200 mg/kg immediately prior to i.v. sporozoites; 40 hours
Experimental: as §4
Forty hours post-sporozoite injection, livers were dissected and homogenized, and total RNA was extracted with an RNeasy Mini kit Quiagen, according to the manufacturer's recommendation. cDNA was obtained by reverse transcription using the First-strand cDNA synthesis kit (Roche) following the manufacturer's instructions. Quantitative RT-PCR reactions were performed for quantification of parasite load, using an ABI PRISM 7000, Applied Biosystem, and specific primers for Plasmodium berghei 18 S rRNA (5′-[…]-3′ and 5′-[…]-3′); or specific primers for P. yoelii 18 S rRNA (5′ –[…]-3′ and 5′-[…]-3′) were used for quantification of parasite load in the livers of mice 40 hours after sporozoite challenge. […]

HepG2 cells = test: Viability of genistein-treated HepG2 cells, number of adherent cells; type: cell-based, human; conditions: 25 μM or 250 μM, 24 hours
Experimental: (§5) Twenty four hours later the number of adherent cells was determined in 10 fields per coverslip, in triplicates. […] Control sporozoites were treated with equivalent volume of DMSO. After 30 min of incubation, sporozoites were washed and added to a monolayer of HepG2 cells seeded 24 hours before. Infection was assessed 24 hours later by determining the number of EEFs in each well.

Huh7 cells = test: Cell death of Huh7 cells, propidium iodide flow cytometry; type: cell-based, human; conditions: 24 hours
[4] = test system: P. berghei ANKA sporozoites; test: Blood parasitemia, survival and experimental cerebral malaria after sporozoite infection of mice; type: in vivo; conditions: 1000 ppm genistein-supplemented diet
Experimental: as §4
After sporozoite inoculation, peripheral blood parasitemias were followed daily by counting parasites in Giemsa stained thin blood films. To accurately quantify parasitemia in the first 96 hours post-infection, 50 to 100 microscope fields were examined in each blood film. At later time points, when the levels of parasitemia were higher, 20 microscope fields were counted per mouse. Mice were checked daily for development of ECM symptoms, which include ataxia, paralysis, deviation of the head and convulsions, coma and death.

[5] = test system: P. berghei ANKA sporozoites; test: In vitro infection of Huh7 cells by P. berghei ANKA sporozoites, EEF counting; type: cell-based
Experimental: as §2, §3

[6] = test system: P. berghei ANKA expressing GFP sporozoites; test: FACS analysis of Huh7 cells infected with PbGFP sporozoites (invasion and GFP intensity); type: cell-based
Experimental: FACS analysis at 2, 6, 30 and 44 hours after sporozoite addition was performed to determine the percentage of parasite-containing cells and parasite-GFP intensity within infected cells. Cell samples for FACS analysis were processed as previously described.

[7] = Genistein quantification in mouse sera, HPLC/MS; type: in vivo, C57BL/6 mice; conditions: for Genistein Concentration (μM): mouse sera, individual mice
Experimental: as §4, with “later.” for “later. In a parallel set of experiments, sporozoite infection was allowed to proceed to blood stage, to assess the impact of genistein in disease progression.”
“Free” analytes_aglycones, were extracted from the plasma/serum sample with ethyl acetate. The organic phase was evaporated and the dried residue was reconstituted in the mobile phase. For determination of the “total” isoflavones the glucuronide- and sulphate-conjugates were cleaved by enzymatic hydrolysis prior to ethyl acetate extraction. Chromatographic separation was performed by HPLC/MS on a C18-column in the gradient mode. Mass spectrometric detection (Agilent LC/MSD VL single-quadrupole-mass spectrometer equipped with elektrospray-ion source) was carried out with negative electrospray ionisation in the SIM-mode. Specifically, 200 μl of plasma were transferred into a 2 mL Eppendorf tube and 100 μl of enzyme solution were added. For enzymatic cleavage of the glucuronide- and sulphate-conjugates the samples were incubated at 38°C for 3 h, followed by addition of 30 μl internal standard solution. For extraction, 1200 μl ethyl acetate was added to the sample, shaken for 5 min at 300 rpm and centrifuged for 10 min at 10000 rpm and 10°C. 1000 μl of the supernatant was transferred into a 2 ml Eppendorf tube and evaporated at 30–35°C to dryness with a Vortex-Evaporator or Speed Vac. The dried residue was reconstituted in 150 μl mobile phase, briefly vortexed, and transferred into an HPLC vial. Forty to 75 μl were injected onto the analytical column and analyzed by HPLC-MS [35]. Data acquisition of extracted ion chromatograms, integration and quantification was performed with the Chemstation Software (Version 9.03 or higher) from Agilent Technologies.

[8] = test system: P. berghei ANKA sporozoites; test: In vitro infection of HepG2 cells by P. berghei ANKA sporozoites, EEF counting; type: cell-based; conditions: 25 μM
Experimental: as §2
P. berghei ANKA sporozoites (4×10^4/well) were added to monolayers of Hepa1-6 or HepG2 cells in 24-well plates. […] As control, an equivalent volume of DMSO (dimethylsulphoxide) was added. After 24 hours cells were fixed and stained with mouse anti-EEF (exo-erythrocytic forms of the parasite) antibody (2E6), followed by an anti-mouse secondary antibody. In all experiments, genistein was left in the cultures since the time of addition until the cells were fixed for quantification of infection. Infection was quantified by counting the total number of EEFs per coverslip using fluorescence microscopy (magnification 400×). […] The level of infection was measured as described above, 24 hours post-infection with sporozoites. Quantification of the area of 100 individual EEFs of each group was performed using ImageJ 1.36b software. The results are expressed as areas in μm^2.

[9] = test system: P. berghei ANKA sporozoites; test: Pre-treatment of sporozoites with genistein, then infection of HepG2 cells; type: cell-based; conditions: sporozoites incubated with 100 μM for 30 min, washed, added to HepG2 cells; 24 hours
Experimental: as §5

[10] = test system: phospho c-met (Tyr1234/1235); test: Sporozoite-induced MET phosphorylation in Huh7 cells, Western blot; type: cell-based, human; conditions: four hours after sporozoites
Experimental: Four hours later total protein extracts were analysed with anti-phospho c-met (Tyr1234/1235) and MET antibodies.
Protein concentrations were determined using the Bio-Rad Laboratories DC protein assay kit and equal amounts of protein extracts ([…]) were separated by 8% SDS-PAGE gels, transferred onto nitrocellulose membranes and processed for Western blotting. The antibody directed to phospho-MET was used at 1∶1000 dilution (#3126; Cell signalling technology, Inc.) and β-chain of human MET was detected with the antibody MET (C-12) at 0,5 μg/mL dilution (#sc-10; Santa Cruz Biotechnology, Inc.). After incubation with the primary antibodies the enhanced chemiluminescence detection system ECL and Kodak films (Amersham Pharmacia Biotech, Piscataway, NJ) were used to visualize proteins on the nitrocellulose blots.

[11] = adults; daily ingestion of up to 54 mg; cited from earlier work

COc1cc(NC(C)CCCN)c2ncccc2c1 (stereo not shown) [primaquine] showed an IC50 (P. berghei ANKA; Huh-7, P. berghei ANKA infection of Huh7 cells, 24 hours, read-out: IC50 (inhibition of infection)) of 13 µM.
With O=c1c(-c2ccc(O)cc2)coc2cc(O)cc(O)c12 [genistein] the “EEF size (area)” value ([1]; Hepa1-6, 25 μM, 24 hours after infection) was “significantly smaller”, the “Hepa1-6 cell infection (total number of EEFs)” value ([1]; increasing doses of genistein, 24 hours after sporozoite addition) was “significantly inhibits Hepa1-6 cell infection in a dose-dependent manner” and the IC50 (P. yoelii) was roughly 30 µM. For the same molecule, the “relation of degree of liver infection to genistein levels in sera” value ([2]; 1000 ppm genistein-supplemented diet) was “inversely correlated”, the liver parasite load ([2]; 1000 ppm genistein-supplemented diet, 40 hours after sporozoite injection) was “significantly reduced” and the “parasite load in the liver” value ([2]; single i.p. dose 200 mg/kg immediately prior to i.v. sporozoites, 40 hours) was “reduced infection”. For the same molecule, the “reduction of liver infection” value ([2]; single oral dose 200 mg/kg 6 hours prior to sporozoite inoculation, 40 hours after infection) was 64%, the “development of parasitemia after iRBC infection” value [3] was “no significant difference” and the “infection of primary mouse hepatocytes” value (P. berghei sporozoites) was “reduced the infection of these cells”. The “parasite load in the liver” value (P. yoelii sporozoites) was “reduced infection”, the “number of adherent cells” value (HepG2 cells) was “constant number of cells” and the “proportion of cell death” value (Huh7 cells) was “constant proportion of cell death”. The survival ([4]; 25 days after infection) was 56%, the “appearance of blood parasitemia” value ([4]; i.v. sporozoites) was “significantly reduced” and the “mice protected from developing cerebral malaria” value ([4]; i.v. sporozoites) was “Fifty-six”. For the same molecule, the “infection after pre-treatment of cells” value ([5]; Huh7 cells pre-treated 2 h with 25 μM, washed before sporozoite addition, 24 hours) was “small but significant reduction of infection”, the reduction in infection ([5]; Huh7 cells, 25 μM, 24 hours after infection) was 68±4% and the “increase in GFP intensity of infected cells (parasite development)” value ([6]; 6, 30 and 44 hours after sporozoite addition) was “significantly less pronounced”. The “invasion rate (GFP positive cells)” value ([6]; 2 hours post-infection) was “equally invaded”, the “genistein amounts in sera” value ([7]; genistein supplemented diet) was no more than 5 µM and the “Genistein Concentration (μM)” value ([7]; single oral dose 200 mg/kg, 2 h after gavage, 200 mg/kg) was 7,07 μM and 15,00 μM and 13,25 μM and 7,23 μM. For the same molecule, the “Genistein Concentration (μM)” value ([7]; single oral dose 200 mg/kg, 6 h after gavage, 200 mg/kg) was 0,57 μM and 0,32 μM and 0,45 μM and 2,29 μM, the “Genistein Concentration (μM)” value ([7]; supplemented diet 1000 ppm, 7–9 weeks old mice) was 3,32 μM and 1,99 μM and 1,35 μM and 2,26 μM and 3,02 μM and 1,34 μM and 3,14 μM and 3,75 μM and 0,20 μM and 1,11 μM and 0,84 μM and 1,37 μM and 0,68 μM and 1,16 μM and 1,42 μM and the “infection, drug removed at different times after infection” value ([8]; HepG2, added at sporozoite addition and washed at various time-points) was “reduced infection when it was present during the first 4 hours of infection”. For the same molecule, the “infection, drug added at different times after sporozoite addition” value ([8]; HepG2, added prior to infection or up to 6 hours after sporozoite addition) was “significantly reduced infection to approximately the same extent”, the reduction in infection ([8]; HepG2 cells, 24 hours after infection) was 74±8% and the “infection level (EEF number) with pre-treated sporozoites” value [9] was “no significant difference”. The “sporozoite-induced Met phosphorylation” value [10] was “inhibited by genistein”, the IC50 (P. berghei ANKA; Huh-7, 24 h, read-out: IC50 (inhibition of infection), P. berghei ANKA infection of Huh7 cells) was roughly 20 µM and the adverse effects [11] was “No obvious adverse effects”.
